Assay: xn = mol fraction of the nth substance listed

CCCC[n+]1ccn(C)c1.F[B-](F)(F)F + CC(=O)N(C)C
Conditions | electrical conductivity [S/m] | viscosity [mPa·s]
288.15 K, 100 kPa, x1 = 5.846e-05 | 0.003905 | –
288.15 K, 100 kPa, x1 = 0.0006944 | 0.04135 | –
293.15 K, 101 kPa, x1 = 0.7419 | – | 51.8
293.15 K, 101 kPa, x1 = 0.8488 | – | 74
293.15 K, 101 kPa, x1 = 0.9175 | – | 96
293.15 K, 101 kPa, x1 = 1 | – | 125
298.15 K, 100 kPa, x1 = 0.0002592 | 0.01885 | –
298.15 K, 101 kPa, x1 = 0.7419 | – | 44.6
298.15 K, 101 kPa, x1 = 0.8488 | – | 63.1
298.15 K, 101 kPa, x1 = 0.9175 | – | 81
298.15 K, 101 kPa, x1 = 1 | – | 105
303.15 K, 101 kPa, x1 = 0.7419 | – | 36.7
303.15 K, 101 kPa, x1 = 0.8488 | – | 52.7
303.15 K, 101 kPa, x1 = 0.9175 | – | 67
303.15 K, 101 kPa, x1 = 1 | – | 88
308.15 K, 100 kPa, x1 = 5.846e-05 | 0.005095 | –
308.15 K, 100 kPa, x1 = 0.0008703 | 0.06575 | –
308.15 K, 100 kPa, x1 = 0.001047 | 0.07765 | –
308.15 K, 101 kPa, x1 = 0.7419 | – | 29.6
308.15 K, 101 kPa, x1 = 0.8488 | – | 43.4
308.15 K, 101 kPa, x1 = 0.9175 | – | 54.9
308.15 K, 101 kPa, x1 = 1 | – | 72
313.15 K, 101 kPa, x1 = 0.7419 | – | 22.6
313.15 K, 101 kPa, x1 = 0.8488 | – | 33.5
313.15 K, 101 kPa, x1 = 0.9175 | – | 42.9
313.15 K, 101 kPa, x1 = 1 | – | 57.7
313.15 K, 101 kPa, x2 = 0.5002 | – | 9.57
313.15 K, 101 kPa, x2 = 0.8999 | – | 1.434
318.15 K, 101 kPa, x1 = 0.7419 | – | 16.2
318.15 K, 101 kPa, x1 = 0.8488 | – | 24.3
318.15 K, 101 kPa, x1 = 0.9175 | – | 31.8
318.15 K, 101 kPa, x1 = 1 | – | 44
323.15 K, 101 kPa, x1 = 0.7419 | – | 9.8
323.15 K, 101 kPa, x1 = 0.8488 | – | 16.2
323.15 K, 101 kPa, x1 = 0.9175 | – | 22.3
323.15 K, 101 kPa, x1 = 1 | – | 31.6
323.15 K, 101 kPa, x2 = 0.5998 | – | 5.02
323.15 K, 101 kPa, x2 = 0.6996 | – | 3.3
323.15 K, 101 kPa, x2 = 0.8999 | – | 1.253
333.15 K, 101 kPa, x2 = 0.8002 | – | 1.77

CCCC[n+]1ccn(C)c1.O=C([O-])C(F)(F)F + CC(=O)[O-].CCCC[n+]1ccn(C)c1
viscosity [mPa·s], 101 kPa
Conditions | 293.15 K | 298.15 K | 303.15 K | 313.15 K | 323.15 K | 333.15 K | 343.15 K | 353.15 K
x2 = 0 | – | – | 58 | 37.8 | 26.1 | 18.89 | 14.47 | 11.25
x2 = 0.2508 | 137.7 | 103 | 78.8 | 49.7 | 33 | 23.2 | 17.33 | 13.18
x2 = 0.4999 | 210 | 152.5 | 113.3 | 66.8 | 42.9 | 29.1 | 20.74 | 15.68
x2 = 0.7487 | 343 | 238 | 171.1 | 94.9 | 57.4 | 37.6 | 25.9 | 18.86

CN(CCO)CCO + CC(=O)[O-].CC[n+]1ccn(C)c1
101 kPa, x2 = 0
Conditions | electrical conductivity [S/m] | viscosity [mPa·s]
288.15 K | 0.000224 | –
293.15 K | 0.00029 | –
298.15 K | 0.000397 | –
303.15 K | 0.000528 | –
308.15 K | 0.000675 | –
313.15 K | 0.000896 | –
318.15 K | 0.00113 | –
323.15 K | 0.00144 | –
328.15 K | 0.00187 | 16.9
333.15 K | 0.00236 | –
338.15 K | 0.00295 | 11.56
343.15 K | 0.00365 | 9.79
348.15 K | 0.00455 | –
353.15 K | 0.00556 | –

CC(=O)[O-].C[NH+]1CCCC1 + CC(=O)[O-].Cn1cc[nH+]c1
298.15 K, 100 kPa
Conditions | viscosity [mPa·s]
x2 = 0 | 3.78
x2 = 0.1 | 4.87
x2 = 0.19 | 5.35
x2 = 0.31 | 6.23
x2 = 0.4 | 6.46
x2 = 0.5 | 6.78
x2 = 0.59 | 6.74
x2 = 0.71 | 6.59
x2 = 0.8 | 6.47

CCCC[n+]1ccn(C)c1.F[B-](F)(F)F + CC(=O)c1ccccc1
100 kPa, x2 = 0
Conditions | viscosity [mPa·s]
293.15 K | 133
303.15 K | 77
313.15 K | 49.1
323.15 K | 33
333.15 K | 23.3

CCCC[n+]1ccn(C)c1.F[B-](F)(F)F + CC(C)=O
Conditions | electrical conductivity [S/m] | viscosity [mPa·s]
296.15 K, 101 kPa, x2 = 0 | 0.35 | –
296.15 K, 101 kPa, x2 = 0.3019 | 2.03 | –
296.15 K, 101 kPa, x2 = 0.6252 | 2.89 | –
296.15 K, 101 kPa, x2 = 0.7956 | 3.5 | –
296.15 K, 101 kPa, x2 = 0.8537 | 3.61 | –
296.15 K, 101 kPa, x2 = 0.9008 | 3.71 | –
296.15 K, 101 kPa, x2 = 0.9396 | 2.92 | –
296.15 K, 101 kPa, x2 = 0.9722 | 1.66 | –
298.15 K, 101 kPa, x2 = 0 | 0.194 | 116
298.15 K, 101 kPa, x2 = 0.0973 | 0.311 | 78
298.15 K, 101 kPa, x2 = 0.1863 | 0.44 | 53.3
298.15 K, 101 kPa, x2 = 0.2878 | 0.623 | 34.2
298.15 K, 101 kPa, x2 = 0.3877 | 0.87 | 21.4
298.15 K, 101 kPa, x2 = 0.4853 | 1.18 | 12.9
298.15 K, 101 kPa, x2 = 0.5858 | 1.61 | 7.39
298.15 K, 101 kPa, x2 = 0.6762 | 1.98 | 4.24
298.15 K, 101 kPa, x2 = 0.8151 | 2.2 | 1.61
303.15 K, 100 kPa, x1 = 0.0999 | – | 0.726
303.15 K, 100 kPa, x1 = 0.2 | – | 1.48
303.15 K, 100 kPa, x1 = 0.3002 | – | 2.789
303.15 K, 100 kPa, x1 = 0.4003 | – | 4.968
303.15 K, 100 kPa, x1 = 0.4996 | – | 8.387
303.15 K, 100 kPa, x1 = 0.6008 | – | 14.14
303.15 K, 100 kPa, x1 = 0.7006 | – | 22.8
303.15 K, 100 kPa, x1 = 0.7995 | – | 35.07
303.15 K, 100 kPa, x1 = 0.9 | – | 54.72
303.15 K, 100 kPa, x1 = 1 | – | 85.4
313.15 K, 100 kPa, x1 = 0.0999 | – | 0.654
313.15 K, 100 kPa, x1 = 0.2 | – | 1.3
313.15 K, 100 kPa, x1 = 0.3002 | – | 2.394
313.15 K, 100 kPa, x1 = 0.4003 | – | 4.185
313.15 K, 100 kPa, x1 = 0.4996 | – | 6.706
313.15 K, 100 kPa, x1 = 0.6008 | – | 10.83
313.15 K, 100 kPa, x1 = 0.7006 | – | 16.72
313.15 K, 100 kPa, x1 = 0.7995 | – | 24.44
313.15 K, 100 kPa, x1 = 0.9 | – | 36.14
313.15 K, 100 kPa, x1 = 1 | – | 53.84
323.15 K, 100 kPa, x1 = 0.0999 | – | 0.595
323.15 K, 100 kPa, x1 = 0.2 | – | 1.171
323.15 K, 100 kPa, x1 = 0.3002 | – | 2.094
323.15 K, 100 kPa, x1 = 0.4003 | – | 3.567
323.15 K, 100 kPa, x1 = 0.4996 | – | 5.516
323.15 K, 100 kPa, x1 = 0.6008 | – | 8.67
323.15 K, 100 kPa, x1 = 0.7006 | – | 12.67
323.15 K, 100 kPa, x1 = 0.7995 | – | 17.99
323.15 K, 100 kPa, x1 = 0.9 | – | 25.35
323.15 K, 100 kPa, x1 = 1 | – | 36.27

CCCC[n+]1ccn(C)c1.F[B-](F)(F)F + CC(C)C[C@H](N)C(=O)O + O
viscosity [mPa·s], 100 kPa
Conditions | 293.15 K | 298.15 K | 303.15 K | 308.15 K | 313.15 K | 318.15 K
x2 = 0, x1 = 0.0003729 | 1.03 | 0.917 | 0.835 | 0.751 | 0.693 | 0.638
x2 = 0, x1 = 0.0007257 | 1.062 | 0.951 | 0.868 | 0.789 | 0.736 | 0.681
x2 = 0, x1 = 0.0011 | 1.093 | 0.983 | 0.904 | 0.83 | 0.779 | 0.725

CCCC[n+]1ccn(C)c1.F[B-](F)(F)F + CC(C)O
viscosity [mPa·s], 101 kPa
Conditions | 293.15 K | 298.15 K | 303.15 K | 308.15 K | 313.15 K | 318.15 K | 323.15 K
x1 = 0.0804 | 4.9 | 4.2 | 3.89 | 3.46 | 2.84 | 2.16 | 1.48
x1 = 0.1585 | 7.6 | 7 | 6.52 | 5.78 | 4.67 | 3.41 | 2.15
x1 = 0.2402 | 11.4 | 10.3 | 9.5 | 8.4 | 6.8 | 4.9 | 3.01
x1 = 0.3505 | 16 | 15 | 14 | 12.4 | 9.9 | 7.1 | 4.34
x1 = 0.4422 | 20.7 | 19.7 | 18.2 | 16 | 12.9 | 9.3 | 5.78
x1 = 0.5619 | 28.4 | 26.7 | 24.9 | 21.9 | 17.6 | 12.9 | 8.3
x1 = 0.6491 | 36.8 | 34.3 | 31.3 | 27.6 | 22.2 | 16.5 | 10.8
x1 = 0.7409 | 48.5 | 44.8 | 40 | 34.6 | 27.9 | 20.9 | 14.1
x1 = 0.8458 | 69 | 61.6 | 53.7 | 45.8 | 36.8 | 27.8 | 19.3
x1 = 0.9327 | 95 | 82 | 70 | 58.8 | 47.1 | 35.9 | 25.4
x1 = 1 | 125 | 105 | 88 | 72 | 57.7 | 44 | 31.6

CCCC[n+]1ccn(C)c1.F[B-](F)(F)F + CCC(C)=O
100 kPa, x1 = 1
Conditions | viscosity [mPa·s]
303.15 K | 85.4
313.15 K | 53.84
323.15 K | 36.27
333.15 K | 25.46

From the CheMixHub ionic liquid set
